In brackets after ≈: the same amount, converted by molar mass. Read-outs that look alike come from different tables or passages of the source.
Legend:
[1] = Stability of molecule A in human duodenal liquid; type: in vitro ADME; conditions: FIG. 5
Protocol: For each stability test, the necessary volume of a sample of human duodenal liquid frozen immediately after withdrawal is defrosted. Centrifuging at 1000 g for 15 min removes the substances resembling mucus. The pH of the supernatant is adjusted to 6.40 by addition of MES buffer (1250 mM in PBS-CMF), a value similar to the mean value of the pH of the fresh duodenal liquid.
Molecule A is dissolved in DMSO and either diluted directly in HESS/HEPES buffer (control) or prepared in the formulations before dilution in HBSS/HEPES in order to obtain a microemulsion. The final concentration in both cases is 10^−4M.
The formulations, preheated to 37° C., are added to the duodenal liquid, maintained at 37° C., in a 1/1 (v/v) ratio and are immediately mixed, in order for the final concentration of molecule A to be 5×10^−5M.
At T=0 (immediately after mixing) and at T=5, 10, 15, 30, 60, 90 and 120 minutes, […] samples of each preparation are withdrawn and mixed with the same volume of acetone at 4° C. to halt the enzymatic reaction. The samples were subsequently centrifuged (1000 g for 5 min) and the supernatant is tested by a validated LC/MS/MS method.

[2] = from a suspension
[3] = Protocol: 10 mg of molecule A are added per 1 ml of aqueous solution.
The suspensions are stirred at 25° C. for 24 hours and are then centrifuged. The amount of molecule A in the supernatant is determined by HPLC and the pH of the supernatant is checked.
The apparent solubility of molecule A in the various oils, surfactants, cosurfactants, DMSO and glycofurol was also determined. Small amounts of molecule A are added to 1 g of each vehicle. Dissolution is carried out by ultrasound treatment at 25° C. Dissolution is confirmed visually and by optical microscopy. The solubility is estimated to within about 1 mg.

in vitro = conditions: human, Caco-2, pH 7.4
Protocol: (§1) The Caco-2 strains used in the tests are Caco-2/TC7 clone cells.
(§2) In order to evaluate the scale of permeability of molecule A dissolved in DMSO as a function of the concentration, two solutions are prepared. The first, to which molecule A labelled with ^14C will be added, is 4.3×10^−2M; the second, to which ^14C-mannitol will be added, is 5×10^−2M.
(§3) These DMSO solutions are subsequently diluted in a 25 mM HBSS/HEPES buffer (pH 7.4) to which 0.4 μCi/ml of ^14C-mannitol or 0.4 μCi/ml of molecule A labelled with ^14C has been added (corresponding to 7 μM), so as to obtain final concentrations of molecule A of 7, 10, 50 or 100 mM.
(§4) The final concentration of DMSO in each donor solution is adjusted to 0.5%.
(§5) Donor solutions comprising 0.5% DMSO but comprising no compound are used as controls.
(§6) To analyse the role of P-glycoprotein in the mechanism of the transport of molecule A, donor solutions comprising 10 mM of molecule A and 100 mM of verapamil, nicardipine or progesterone are prepared and the permeability of molecule A is evaluated and compared with that obtained without the P-glycoprotein modulator.
(§7) To study the effects of glycofurol and of macrogol 300 on the permeability of molecule A: • Molecule A is dissolved in glycofurol in order to obtain 4.3×10^−3M or 5×10^−3M solutions. These are subsequently diluted in the HBSS/HEPES buffer to which 0.4 μCi/ml of ^14C-mannitol or 0.4 μCi/ml of molecule A labelled with ^14C has been added (see above), in order to obtain donor solutions for which the final concentration of molecule A is 50 μM and the final content of glycofurol is 1%. • Molecule A is dissolved in macrogol 300 in order to obtain 0.3×10^−3M or 10^−3M solutions.
(§8) Before any formulation, molecule A is dissolved in DMSO or glycofurol in order to obtain, in each solvent, solutions with concentrations of 4.3×10^−3M or 5×10^−3M. 40 μCi/ml of molecule A labelled with ^14C are added to the 4.3×10^−3M solutions, so that the theoretical concentration of molecule A is 5×10^−3M. 40 μCi/ml of ^14C-mannitol are added to the 5×10^−3M solutions.
(§9) Each of the solutions thus obtained is subsequently diluted in the mixtures under consideration of lipid excipients and of surfactants and, if appropriate, of cosurfactants, giving formulations comprising the solvent (DMSO or glycofurol) at 10% and molecule A at 5×10^−4M.
(§10) These formulations are diluted in 25 mM HBSS/HEPES buffer to give the donor solutions, the final concentration of molecule A of which is 5×10^−5M, which comprise 0.4 μCi/ml of molecule A labelled with 14C or else 0.4 μCi/ml of 14C-mannitol, and the proportion of lipid excipient of which is less than 1%. […]

Caco-2/TC7 clone cells [4] = test system: Caco-2/TC7 clone cells
Protocol: as §1, §2, §3, §4, §5, §6, §7, §8, §9, §10

Caco-2/TC7 clone cells [5] = experiment: Transport (apparent permeability AB/BA) through Caco-2 cell monolayers; conditions: solvents used to prepare the formulations (FIG. 3)
Protocol: as §1, §2, §3, §4, §5, §6, §7, §8, §9, §10

In the case of `CCOC(=O)[C@H](CNC(=O)c1ccc(CCC(=O)NC2=NCCCN2)cc1)NS(=O)(=O)c1cccc2ccccc12` [molecule A, ethyl ester of (2S)-2-(naphthyl-1-sulphonylamino)-3-(4-(2-(1,4,5,6-tetrahydropyrimidin-2-ylcarbamoyl)ethyl)-benzoylamino)propionic acid], the “stability in human duodenal liquid (in words)” value [1] is reported as “unstable”, the absolute bioavailability [2] is reported as “less than 1%” and the “absorption of the active principle orally” value [2] is reported as “less than 1%”. It also gave a solubility ([3]; aqueous medium at physiological pH of the intestines) of 400 µg/mL (≈ 0.69 mM), a solubility ([3]; in glycofurol) of 6000 µg/mL (≈ 10.4 mM) and a solubility ([3]; in macrogol 300) of 2000 µg/mL (≈ 3.45 mM).

With `O=C(CCCOc1ccc(C[C@H](NC(=O)OCc2ccccc2)C(=O)O)cc1)NC1=NCCCN1` [molecule B, (2S)-2-benzyloxycarbonylamino-3-(4-(3-(1,4,5,6-tetrahydropyrimidin-2-ylcarbamoyl)propyloxy)phenyl)-propionic acid] the Papp B→A at 120 min (in vitro) was 2.1 ×10⁻⁶ cm/s, the “efflux by P-glycoprotein (in words)” value (Caco-2/TC7 clone cells [4]; Caco-2) was “undergoes efflux by P-glycoprotein” and the “increase in the transport in the AB direction by a factor, with respect to 0.5% DMSO” value (Caco-2/TC7 clone cells [4]; human, Caco-2, 120 min, pH 7.4) was 5.9.

With glycofurol the “effect of the solvent on the Papp values of molecule A” value (Caco-2/TC7 clone cells [5]) was “no effect”.
